Among the data in US9549557B2, “Insecticidal synergistic combinations of phthaldiamide derivatives and fipronil or ethiprole” (BAYER CROPSCIENCE AKTIENGESELLSCHAFT, priority 2013, dated 2017) are mortality values, retold here.

Broadly, the mortality is the percentage killed.

The test system of test [1] is mustard beetle larvae (Phaedon cochleariae). In words: Phaedon cochleariae - spray test. In kind it is in vivo. Conditions: 48 h. How it is done: (§1) The expected efficacy of a given combination of two compounds is calculated as follows (see Colby, S. R., “Calculating Synergistic and antagonistic Responses of Herbicide Combinations”, Weeds 15, pp. 20-22, 1967):
(§2) • X is the efficacy expressed in % mortality of the untreated control for test compound A at a concentration of m ppm respectively m g/ha, • Y is the efficacy expressed in % mortality of the untreated control for test compound B at a concentration of n ppm respectively n g/ha, • E is the efficacy expressed in % mortality of the untreated control using the mixture of A and B at m and n ppm respectively m and n g/ha, then is
(§3) If the observed insecticidal efficacy of the combination is higher than the one calculated as “E”, then the combination of the two compounds is more than additive, i.e., there is a synergistic effect.
Solvent: 78.0 parts by weight of acetone
• 1.5 parts by weight of dimethylformamide Emulsifier: 0.5 parts by weight of alkylaryl polyglycolether To produce a suitable preparation of active compound, 1 part by weight of active compound is mixed with the stated amount of solvent and emulsifier, and the concentrate is diluted with emulsifier-containing water to the desired concentration. To produce a suitable preparation of a spore suspension the spores are diluted with emulsifier-containing water to the desired concentration.
Chinese cabbage (Brassica pekinensis) leaf-disks are sprayed with a preparation of the active ingredient of the desired concentration. Once dry, the leaf disks are infested with mustard beetle larvae (Phaedon cochleariae).
After the specified period of time, mortality in % is determined. 100% means all beetle larvae have been killed and 0% means none of the beetle larvae have been killed. The mortality values determined thus are recalculated using the Colby-formula (see sheet 1).

Test [2] relates to larvae of the diamondback moth (Plutella xylostella). The experiment in a line: Plutella xylostella - spray test. The note with it: 48 h, read-out: Efficacy in % after 2 d (mortality). The format is in vivo. How it is done: as §1, §2, §3
Solvent: 7 parts by weight of dimethylformamide
Emulsifier: 2 parts by weight of alkylaryl polyglycolether […]
After the specified period of time, the mortality in % is determined. […] The mortality values determined thus are recalculated using the Colby-formula (see sheet 1).

Where [3] appears, read: read-out: Efficacy in % after 2 d (mortality).

With `CC[S+]([O-])c1c(C#N)nn(-c2c(Cl)cc(C(F)(F)F)cc2Cl)c1N` (centres unmarked) [Ethiprole (II-2), ethiprole], in test [1] (setting [3]), the mortality at 1.2 g/ha was 33%. For the same molecule, the mortality at 0.8 g/ha in test [1] (in Brassica rapa, foliar, read-out: Efficacy in % after 2 d (mortality)) was determined as 50%.
Take `Cc1cc(C(F)(C(F)(F)F)C(F)(F)F)ccc1NC(=O)c1cccc(Cl)c1C(=O)NC(C)(C)C#N` [(I-5)]: the mortality at 6 g/ha in test [1] (6 g ai/ha, after 2 d, Table A-2, read-out: Efficacy in % after 2 d (mortality)) was 0%. Further, in test [1] (12 g ai/ha, after 2 d, Table A-2, read-out: Efficacy in % after 2 d (mortality)), the mortality at 12 g/ha came to 0%. The mortality at 4 g/ha in test [1] (foliar, 4 g ai/ha, Chinese cabbage leaf disks sprayed, after 2 d, Table A-1, read-out: Efficacy in % after 2 d (mortality)) is 0%. Besides, the mortality at 0.0625 ppm in test [2] (0.0625 ppm, cabbage leaves sprayed, after 2 d) was determined as 0%.
Regarding `N#Cc1nn(-c2c(Cl)cc(C(F)(F)F)cc2Cl)c(N)c1[S+]([O-])C(F)(F)F` (centres unmarked) [Fipronil, fipronil], the mortality at 0.3 g/ha in test [1] (setting [3]) came out at 0%. Also, the mortality at 0.125 ppm in test [2] (in Brassica oleracea) worked out at 45%.
